# Assay results: article PMC4389368, “Sarmentine, a natural herbicide from Piper species with multiple herbicide mechanisms of action” (Frontiers in Plant Science, 2015)
# Tests used:
# [1] = target: T1, photosystem II QB protein (D1) (Spinacia oleracea, UniProt P69560); assay: […]-atrazine displacement on spinach thylakoid membranes; assay type: binding
# T1 construct: gene psbA; isolated thylakoid membranes; with photosystem II complex
# [2] = test system: T2, photosystem II QB protein (D1); assay: oxygen evolution in isolated thylakoid membranes; assay type: biochemical, Amaranthus retroflexus
# T2 construct: gene psbA; isolated thylakoid membranes, wild-type; with photosystem II complex
# [3] = target: T3, enoyl-ACP reductase (ENR) (Arabidopsis thaliana, UniProt Q9SLA8); assay: NADH oxidation (A340) with purified recombinant enzyme; assay type: biochemical
# T3 construct: gene MOD1
# T3 sequence (Q9SLA8 75-390): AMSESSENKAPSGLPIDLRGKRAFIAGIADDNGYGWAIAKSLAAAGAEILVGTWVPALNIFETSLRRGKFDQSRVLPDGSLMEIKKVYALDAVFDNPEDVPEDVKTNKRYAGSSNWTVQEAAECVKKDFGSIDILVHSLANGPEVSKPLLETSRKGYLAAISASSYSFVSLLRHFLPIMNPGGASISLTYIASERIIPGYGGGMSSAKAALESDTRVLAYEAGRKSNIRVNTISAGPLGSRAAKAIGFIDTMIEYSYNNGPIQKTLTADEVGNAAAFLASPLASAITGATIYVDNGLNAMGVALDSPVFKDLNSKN
Ki [1],IC50 [3],SMILES,IC50 [2]
1.5 µM,18.3 µM,"CCCCC/C=C/C=C/C(=O)N1CCCC1 [Sarmentine, 1-(1-pyrrolidinyl)-(2E,4E)-2,4-decadien-1-one]",1.72 µM
,,CCNc1nc(Cl)nc(NC(C)C)n1 [atrazine],0.6 µM
